Legend:
[1] = tested on: PT of pooled human plasma; test: Prothrombin time (PT) human plasma clotting assay; format: biochemical
[2] = in vivo; cited from earlier work
[3] = tested on: PT of rhesus monkey plasma; test: Prothrombin time in rhesus monkey plasma; format: biochemical, rhesus monkeys; settings: 250 nM rivaroxaban; baseline 17.5±1.6 sec
[4] = tested on: blood loss due to fondaparinux; test: Rat tail transection blood loss model, fondaparinux; format: in vivo, Sprague-Dawley rats; settings: fondaparinux 25 mg/kg IV bolus, protamine 0.9 mg IV bolus
[5] = cited from earlier work
[6] = tested on: enoxaparin-induced anticoagulation; test: Enoxaparin-induced anticoagulation and its reversal in rats; format: in vivo
thrombin generation = test: Thrombin generation assay in platelet poor plasma; format: biochemical, human; settings: betrixaban 250 nM; in presence of rfVIIa (50-200 nM) and tissue factor; PPP
[7] = tested on: aPTT of pooled human plasma; test: aPTT human plasma clotting assay (MLA Electra 800 coagulation timer); format: biochemical
[8] = In vivo mouse model, PK-PD of betrixaban with antidote; parameters: species or system C57Bl/6 mice; settings: male, C57Bl/6, mouse, plasma, oral, Betrixaban (ng/mL), […] after 15 mg/kg betrixaban PO, 5 min after antidote injection
[9] = Sustained reversal of betrixaban-induced anticoagulation in rats; format: in vivo; settings: rat, plasma, intravenous
[10] = tested on: blood loss due to enoxaparin; parameters: species or system Sprague-Dawley rats; settings: in vivo
[11] = tested on: clot formation in human platelet poor plasma; test: Clotting prolongation assay, 96-well plate format (OD405 turbidity); format: biochemical; settings: 1 U/ml enoxaparin; aPTT reagent
fXa (bovine fXa) = test: Plasma anti-fXa activity assay (modified Coamatic LMWH kit); format: in vivo; parameters: dose or concentration left out as unconfirmed; settings: fondaparinux
[12] = 1 mg/kg/hr, Betrixaban alone (uM), plasma concentration, betrixaban 1.0 mg/kg/hr IV for 30 min, no antidote
[13] = Betrixaban + antidote (uM), betrixaban plasma concentration, betrixaban infusion then r-Antidote 5 mg bolus + 5 mg/hr

COc1ccc(-n2nc(C(N)=O)c3c2C(=O)N(c2ccc(N4CCCCC4=O)cc2)CC3)cc1 [apixaban]
PT ([1]; 1 μM apixaban): 16.4 s

O=C(NC[C@H]1CN(c2ccc(N3CCOCC3=O)cc2)C(=O)O1)c1ccc(Cl)s1 [rivaroxaban]
PT ([1]; 1 μM rivaroxaban, baseline PT 14.1 sec): 23.4 s | Reported therapeutic concentration [2]: approximately 600 nM | PT (average±standard deviation) [3]: 32.3 ± 6.1 s

protamine sulfate
reversal of blood loss due to fondaparinux ([4]; listed as Protamine): failed to display corrective activity | reversal of blood loss due to fondaparinux ([4]; listed as protamine): did not reverse blood loss | neutralization of enoxaparin activity ([5]; slow intravenous infusion of protamine sulfate, enoxaparin prescribing information): up to 60% | reversal of enoxaparin-induced anticoagulation (plasma aPTT) ([6]; rats, enoxaparin 3.0 mg/kg, r-Antidote 5 mg bolus + 5 mg/h or protamine sulfate 0.9 mg): sustained reversal

COc1ccc(NC(=O)c2ccc(C(=N)N(C)C)cc2)c(C(=O)Nc2ccc(Cl)cn2)c1 [betrixaban, [2-({4-[(dimethylamino)iminomethyl]phenyl}carbonylamino)-5-methoxyphenyl]-N-(5-chloro(2-pyridyl))carboxamide]
inhibition of fXa by betrixaban (thrombin generation) (thrombin generation): about 75% | aPTT ([7]; 300 nM Betrixaban): 61.8 s | aPTT ([7]; 400 nM betrixaban): 66.3 s | extension of aPTT ([7]; 400 nM betrixaban): more than two folds | concentration at […] ([8]; Mean, pd-Antidote treated mice): 687 ng/mL | concentration at […] ([8]; Mean, r-Antidote treated mice): 381 ng/mL | concentration at […] ([8]; individual animal, r-Antidote treated mice): 434 ng/mL | concentration at 30 min ([9]; 1 mg/kg/hr, Betrixaban + antidote (uM), betrixaban plasma concentration, betrixaban 1.0 mg/kg/hr IV for 30 min, antidote group before antidote dosing): 0.154 µM | concentration at 30 min [9, 12]: 0.169 µM | concentration at 35 min [9, 12]: 0.062 µM | concentration at 60 min [9, 12]: 0.045 µM | concentration at 90 min [9, 12]: 0.048 µM | concentration at 35 min [9, 13]: 1.57 µM | concentration at 60 min [9, 13]: 1.88 µM | concentration at 90 min [9, 13]: 1.19 µM

enoxaparin
peak anti fXa activity ([5]; human, in vivo, sc, 1 mg/kg): 1.1 U/ml | Mean absolute bioavailability ([5]; human, in vivo, sc): 92% | anti-fXa level corresponding to prescribed dose ([5]; human, in vivo): approximately 1 U/mL | peak anticoagulation in rat plasma (Coatest LMW heparin assay) ([6]; enoxaparin 1 mg/kg IV bolus): 1 anti fXa U/ml | peak anticoagulation in rat plasma (Coatest LMW heparin assay) ([6]; enoxaparin 3 mg/kg IV bolus): 4 anti fXa U/ml | whole blood INR ([6]; rats, enoxaparin 1, 3 and 6 mg/kg IV bolus): dose proportional extensions | maximum blood loss (plateau), of normal rat blood volume [10]: approximately 5% | extension of clotting time compared to control plasma [11]: greater than 5 fold

CO[C@H]1O[C@H](COS(=O)(=O)O)[C@@H](O[C@@H]2O[C@@H](C(=O)O)[C@@H](O[C@H]3O[C@H](COS(=O)(=O)O)[C@@H](O[C@@H]4O[C@H](C(=O)O)[C@@H](O[C@H]5O[C@H](COS(=O)(=O)O)[C@@H](O)[C@H](O)[C@H]5NS(=O)(=O)O)[C@H](O)[C@H]4O)[C@H](OS(=O)(=O)O)[C@H]3NS(=O)(=O)O)[C@H](O)[C@H]2OS(=O)(=O)O)[C@H](O)[C@H]1NS(=O)(=O)O [fondaparinux]
anti-fXa activity expressed with enoxaparin as the standard (fXa (bovine fXa); human plasma): 0.80 U/ml enoxaparin | anti-fXa activity expressed with enoxaparin as the standard (fXa (bovine fXa); rat plasma): 0.66 U/ml enoxaparin
